Data as given in patent US20110306561A1, “COMPLEMENT C3a DERIVED DIMERIC PEPTIDES AND USES THEREOF” (Yeda Research And Devlopment Co. Ltd., priority 2009, published 2011).
Like-named read-outs stand apart in the source and are kept apart here. Residues, ends and D or L forms follow the SMILES beside them. No end group written: not given here.

B1: C5a: complement activation product C5a, anaphylatoxin (protein, UniProt P01031 678-751, looked up)
C5a anaphylatoxin: TLQKKIEEIAAKYKHSVVKKCCYDGACVNNDETCEQRAARISLGPRCIKAFTECCVVASQLRANISHKDMQLGR
modifications: C5a anaphylatoxin

Experiments:
[1] = tested on: RBL-2H3 cells; format: cell-based, rat
Description: Mediator secretion by the rat mucosal mast cells, RBL-2H3-line, in response to stimulation by FcεRI clustering was monitored by measuring the activity of the secreted granular enzyme β-hexosaminidase. To this end, a monoclonal DNP-specific murine IgE-class antibody (rat clone 95.3, 1:10^3 dilution) was added to 15×10^6 cells in 10 ml DMEM and incubated in 96 well plates (100 μl suspension/well) for 2 hours. The cell monolayers were then washed three times with Tyrode's buffer (137 mM NaCl, 2.7 mM KCl, 1.8 mM CaCl2, 0.5 mM MgCl2, 0.4 mM NaH2PO4, 5.6 mM glucose, 10 mM Hepes, 0.1% BSA, pH 7.4.) and stimulated with BSA derivatized by an average of 11 DNP groups per molecule (DNP11-BSA) serving as an antigen. To study the effect of the peptides on antigen-induced response, RBL-2H3 cells were pre-incubated with various concentrations of the peptides for 5 minutes at room temperature before the antigen was added at the pre-determined suboptimal dose. The peptides were present throughout the assay. After 1 hour incubation at 37 ° C., 25 μl of the cell supernatants were removed and incubated with 50 μl of β-hexosaminidase substrate solution (1.3 mg/ml p-nitrophenyl-N-acetyl-β-D-glucosamine in 0.1 M sodium citrate, pH 4.5) at 37° C. for 45 minutes. The reaction was terminated by the addition of 150 μl of 0.2 M glycine, pH 10.7, and the optical density of the samples was measured at 405 nm. […] The total enzyme content of the cells/well (following lysis by triton-x-100) and the spontaneous enzyme release of the cells/well was measured in each experiment. All experiments were performed in triplicate and the results were calculated as net secreted enzyme activity (as fraction or percentage of total cell-content) in response to the stimulus.

[2] = Circular dichroism (CD) measurement of ordered structure; format: physicochemical; conditions: 100 μg/ml in PBS, room temperature; CD+/CD− not defined
Description: In order to assess possible structural features that characterize the active peptides, CD measurement were carried out. The CD measurements were performed on an Applied Photophysics spetrometer in 1 mm light path cell, at room temperature (about 25° C.). The peptides stock solutions were usually of 5 mg/ml in water and the measurements were done at a 100 μg/ml dilution in PBS.

[3] = tested on: RBL-2H3 cells; conditions: Erdei et al. 1995, 1999; cited from earlier work

Molecule	Inhibition of secretion of 3H2 of RBL cells (IC50) [1] [µg/mL]	Effect on IgE-mediated degranulation of RBL-2H3 cells (literature) [3]	other results
DCSNYITR [Monomer A (5508)]	75		
CC[C@H](C)[C@H](NC(=O)[C@H](Cc1ccc(O)cc1)NC(=O)[C@H](CC(N)=O)NC(=O)[C@H](CS)NC(=O)[C@H](CS)NC(=O)[C@@H](N)CC(=O)O)C(=O)N[C@H](C(=O)N[C@@H](CCCNC(=N)N)C(=O)O)[C@@H](C)O [Monomer C3a9, reference compound] (H-DCCNYITR-OH; N-terminus and C-terminus assumed)	200		
CC[C@H](C)[C@H](NC(=O)[C@H](Cc1ccc(O)cc1)NC(=O)[C@H](CC(N)=O)NC(=O)[C@H](CO)NC(=O)[C@H](CSSC[C@H](NC(=O)[C@@H](N)CC(=O)O)C(=O)N[C@@H](CO)C(=O)N[C@@H](CC(N)=O)C(=O)N[C@@H](Cc1ccc(O)cc1)C(=O)N[C@H](C(=O)N[C@H](C(=O)N[C@@H](CCCNC(=N)N)C(=O)O)[C@@H](C)O)[C@@H](C)CC)NC(=O)[C@@H](N)CC(=O)O)C(=O)N[C@H](C(=O)N[C@@H](CCCNC(=N)N)C(=O)O)[C@@H](C)O [Dimer A (5508)2] (HELM PEPTIDE1{D.C.S.N.Y.I.T.R}|PEPTIDE2{D.C.S.N.Y.I.T.R}$PEPTIDE1,PEPTIDE2,2:R3-2:R3$$$V2.0; N-terminus and C-terminus assumed)	15		
Intact human C3a: human complement component C3a, a 77-mer polypeptide as set forth in SEQ ID NO:1		inhibit the IgE-mediated degranulation of RBL-2H3 cells	Circular Dichroism [2]: CD+; Inhibition of secretion of 3H2 of RBL cells (IC50) ([1]; suboptimal DNP11-BSA antigen stimulus, β-hexosaminidase): 2 µg/mL
CC[C@H](C)[C@H](NC(=O)[C@H](Cc1ccc(O)cc1)NC(=O)[C@H](CC(N)=O)NC(=O)[C@H](CSSC[C@H](NC(=O)[C@H](CO)NC(=O)[C@@H](N)CC(=O)O)C(=O)N[C@@H](CC(N)=O)C(=O)N[C@@H](Cc1ccc(O)cc1)C(=O)N[C@H](C(=O)N[C@H](C(=O)N[C@@H](CCCNC(=N)N)C(=O)O)[C@@H](C)O)[C@@H](C)CC)NC(=O)[C@H](CO)NC(=O)[C@@H](N)CC(=O)O)C(=O)N[C@H](C(=O)N[C@@H](CCCNC(=N)N)C(=O)O)[C@@H](C)O [Dimer B (5513)2] (HELM PEPTIDE1{D.S.C.N.Y.I.T.R}|PEPTIDE2{D.S.C.N.Y.I.T.R}$PEPTIDE1,PEPTIDE2,3:R3-3:R3$$$V2.0; N-terminus and C-terminus assumed)	25		
B1		no effect	
